Assay [1] deals with bovine microtubule protein. Kind of assay: In vitro ED50 MT polymerization study (DAPI fluorescence tubulin assay). In kind it is biochemical. Particulars: for ED50 Compound/ED50 Paclitaxel: ratio; for EC50: tubulin polymerization, 37° C. 30 minutes, maximum assembly = 25 μM paclitaxel. As to the method: In Vitro ED50 MT Polymerization Study
In this tubulin binding assay, microtubule protein (MTP) is used as a substrate. The assay contains bovine tubulin plus microtubule associated proteins (MAP). MTP is polymerized into microtubules in the presence of DAPI (4′,6′-diamidino-2-phenylindole), a fluorescent compound. DAPI binds to tubulin; when microtubules are formed and there is an enhancement of fluorescence. The microtubule formation is measured as a function of time, using a fluorescence plate reader. […] The method used is based on the procedure published by Donna M. Barron, et al, “Fluorescence-based high-throughput assay for antimicrotuble drugs” Analytical Biochemistry, 315: 49-56, 2003, which is incorporated by reference in its entirety. The excitation wavelength, in that assay, was set at 370 nm and the emission wavelength was set at 450 nm for the DAPI experiments.
A Bio-Tek FL 600 microplate Fluorescence Reader was used to measure the relative level of fluorescence in the DAPI assay.
Assays were conducted in 96-well plates. Each well contained a total volume of 0.1 mL consisting of PEM buffer (0.1 M Pipes, 1 mM EGTA, 1 mM MgCl2, pH 6.9), 0.2 mg bovine microtubule protein, and 10 μg of DAPI. […] The final DMSO concentration was 4%. The plates were incubated at 37° C. for 30 minutes and read in a fluorescence plate reader using an excitation wavelength of 360 nm and an emission wavelength of 460 nm. Fluorescence values were corrected for the sample without compound.
Experiments were done twice in triplicate. Results were subsequently combined and fit to a non-linear regression program.

The subject of assay [2] is U251 human CNS tumor cells (glioblastoma). Particulars: temozolomide 80 mg/kg/dose po q4d×3. The source says:
Tumor Model: Each animal was implanted with one million U251 human CNS tumor cells from an in vitro cell line by ic injection with a 25 gauge needle. The day of tumor implantation (May 24, 2006) was designated as day 0. A sufficient number of mice were implanted so that animals with body weights in a range as narrow as possible were selected for the trial on the day of treatment initiation (day 1 after tumor implantation). Animals were randomly assigned to the treatment groups and individually identified by earmark codes.
A portion of this solution was then diluted with the complete vehicle to achieve the lower dosing concentration of 1.2 mg/mL. […] Temozolomide (Temodar, Schering Corporation) was prepared on each day of injection in Klucel+tween 80 at a concentration of 4 mg/mL. Temozolomide was administered within 5 minutes of formulation on the basis of exact body weight using a volume of 0.2 mL/10 g of body weight.
Data Collection: Animal health surveillance was conducted and mortality data were collected daily. The animals were weighed twice weekly starting with the first day of treatment.
Study Duration: The study was terminated 100 days after tumor implantation. Any animal found moribund or whose body weight dropped below 14 g was euthanized prior to study termination.
Parameters Evaluated: Number of 100-day survivors, median day of death, and the increase in lifespan based on median day of death and expressed as a percentage (% ILS), median survival time and the % ILS based on median survival time.

This is an account of results in patent US10745408B2, “Biologically active taxane analogs and methods of treatment by oral administration” (Tapestry Pharmaceuticals, Inc., priority 2007, dated 2020).

The EC50 is the concentration giving half of the maximal effect. Low values mean an effect from little substance, high ones a need for much substance.

Turning to `CC(=O)O[C@@]12CO[C@@H]1C[C@H](O)[C@@]1(C)C(=O)[C@H](O)C3=C(C)[C@@H](OC(=O)[C@H](O)[C@@H](NC(=O)OC(C)(C)C)c4ccccc4)C[C@@](O)([C@@H](OC(=O)c4ccccc4)[C@H]21)C3(C)C` [Docetaxel], in assay [1], the “ED50 Compound/ED50 Paclitaxel” value was 1.07 and a half-maximal effect (EC50) was put at 3.18 ± 0.45 µM.

With `C/C(=C\c1csc(C)n1)[C@@H]1C[C@@H]2O[C@]2(C)CCC[C@H](C)[C@H](O)[C@@H](C)C(=O)C(C)(C)[C@@H](O)CC(=O)O1` [Epothilone B], in assay [1], the “ED50 Compound/ED50 Paclitaxel” value is recorded as 1.11 and the concentration giving a half-maximal response (EC50) was determined as 3.31 ± 0.51 µM.

For `Cn1nnc2c(C(N)=O)ncn2c1=O` [temozolomide, Temozolomide], in assay [2], the “ILS based on median survival time” value is listed as 400%, the “median day of death” value was 48 days, the median survival time was 50 days and the “survivors day 100” value is 100 = 1).
